The values that follow come from patent publication US12622910B2, “Inhibitors of Bruton's tyrosine kinase and methods of their use” (Janssen Pharmaceutica NV, priority 2021, dated 2026).

Where two headings read alike, the source gives them in different places.

For one data set, the target named is AR (h) (Homo sapiens, UniProt P10275). Briefly: Receptor panel, Study 2. The class given is binding. On the procedure:
(§1) RESULTS AND DISCUSSION—Selectivity—The compound of Formula (III) was evaluated in three selectivity panels to assess the potential for off-target pharmacology (Table 8). […] The kinase off-target profile of The compound of Formula (III) was assessed in a full human wild-type panel using radiometric kinase activity assays (KinaseProfiler™ and IC50Profiler™; Eurofins Scientific) (Table 9; FIG. 23). The compound of Formula (III) inhibited 4/278 kinases >50% at 1 micromolar, identifying BTK and the three other kinases having analogous Cys residues with the potential for covalent inhibition (BMX, TEC, BLK). […]. The cellular kinase selectivity of The compound of Formula (III) was established in native Ramos B cell kinome assays (KiNativ™; ActivX) confirmed BTK as the primary target with inhibition of BLK and TEC inhibition detected (Table 10).

A further data set addresses Ach (h) (Homo sapiens, UniProt P22303). In words: Receptor panel, Study 2. The data set is classed as binding. Here is the method: as §1
The target of another data set is Beta2 (h) (Homo sapiens, UniProt P07550). In words: Receptor panel, Study 2. The data set is classed as binding. On the procedure: as §1
Sequence of Beta2 (h) (P07550 whole entry): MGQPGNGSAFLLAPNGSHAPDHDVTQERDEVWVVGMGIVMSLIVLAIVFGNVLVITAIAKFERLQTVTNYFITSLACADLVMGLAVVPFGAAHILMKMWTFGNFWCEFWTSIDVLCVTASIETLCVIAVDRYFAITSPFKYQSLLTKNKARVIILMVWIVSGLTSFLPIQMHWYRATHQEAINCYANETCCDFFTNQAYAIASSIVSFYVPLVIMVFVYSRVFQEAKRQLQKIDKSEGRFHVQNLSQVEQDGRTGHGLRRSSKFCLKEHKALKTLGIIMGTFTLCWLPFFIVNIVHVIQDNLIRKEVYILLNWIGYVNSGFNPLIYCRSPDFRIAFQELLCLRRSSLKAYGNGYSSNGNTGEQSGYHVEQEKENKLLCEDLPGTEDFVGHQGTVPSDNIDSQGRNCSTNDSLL
The next data set addresses CB1 (h) (Homo sapiens, UniProt P21554). Briefly: Receptor panel, Study 2. The class given is binding. Here is the method:
as §1

The next data set addresses CB2 (h) (Homo sapiens, UniProt P34972). In words: Receptor panel, Study 2. The data set is classed as binding. Here is the method: as §1
The subject of the next data set is Ca channel. In words: Receptor panel, Study 2. The data set is classed as binding. On the procedure: as §1
In another data set the target is GR (h) (Homo sapiens, UniProt P04150). In words: Receptor panel, Study 2. The class given is binding. On the procedure: as §1
The target in the next data set is MAO-A (Rattus norvegicus, UniProt P21396). In words: Receptor panel, Study 2. The class given is binding. On the procedure:
as §1

Another data set deals with N neuronal α4β2 (h) (Homo sapiens, UniProt P17787+P43681). In words: Receptor panel, Study 2. The class given is binding. Here is the method:
as §1

The next data set relates to NMDA. Briefly: Receptor panel, Study 2. The data set is classed as binding. Here is the method: as §1
The target in another data set is PDE3A (h) (Homo sapiens, UniProt Q14432). Briefly: Receptor panel, Study 2. The data set is classed as binding. On the procedure: as §1
Sequence of PDE3A (h) (Q14432 whole entry): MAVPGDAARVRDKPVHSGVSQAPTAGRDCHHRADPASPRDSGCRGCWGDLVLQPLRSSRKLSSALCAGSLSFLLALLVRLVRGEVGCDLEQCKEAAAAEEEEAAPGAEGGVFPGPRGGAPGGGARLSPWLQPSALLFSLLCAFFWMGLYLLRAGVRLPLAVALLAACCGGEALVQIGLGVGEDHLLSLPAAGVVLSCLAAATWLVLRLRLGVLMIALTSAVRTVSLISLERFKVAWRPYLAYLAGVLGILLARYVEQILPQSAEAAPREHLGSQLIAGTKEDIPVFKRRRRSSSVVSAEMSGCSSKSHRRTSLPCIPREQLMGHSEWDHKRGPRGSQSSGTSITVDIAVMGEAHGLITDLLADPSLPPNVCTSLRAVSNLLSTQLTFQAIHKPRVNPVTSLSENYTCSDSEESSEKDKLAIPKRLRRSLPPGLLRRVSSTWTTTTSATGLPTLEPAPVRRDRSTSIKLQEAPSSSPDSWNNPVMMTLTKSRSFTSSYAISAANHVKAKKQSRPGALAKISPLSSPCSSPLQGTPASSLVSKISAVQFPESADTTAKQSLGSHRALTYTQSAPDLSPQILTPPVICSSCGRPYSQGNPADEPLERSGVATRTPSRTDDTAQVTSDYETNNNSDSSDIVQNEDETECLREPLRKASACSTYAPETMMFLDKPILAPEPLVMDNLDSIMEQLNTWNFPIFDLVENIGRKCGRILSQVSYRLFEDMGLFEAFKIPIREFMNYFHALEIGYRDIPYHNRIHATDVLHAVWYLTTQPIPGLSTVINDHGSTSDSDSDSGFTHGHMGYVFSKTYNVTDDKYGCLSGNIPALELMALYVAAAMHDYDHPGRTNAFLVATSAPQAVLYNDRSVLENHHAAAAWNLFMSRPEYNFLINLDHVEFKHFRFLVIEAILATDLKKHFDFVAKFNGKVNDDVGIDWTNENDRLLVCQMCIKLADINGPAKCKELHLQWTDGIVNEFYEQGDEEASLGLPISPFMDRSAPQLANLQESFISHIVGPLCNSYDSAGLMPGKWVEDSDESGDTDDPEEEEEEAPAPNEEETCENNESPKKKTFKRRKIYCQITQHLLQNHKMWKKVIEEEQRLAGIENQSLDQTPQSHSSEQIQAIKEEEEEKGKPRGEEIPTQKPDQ
Another data set addresses PDE4D2 (h) (Homo sapiens, UniProt Q08499). Briefly: Receptor panel, Study 2. The class given is binding. Here is the method: as §1
A further data set has as its target mGluR5 (h) (Homo sapiens, UniProt P41594). In words: Receptor panel, Study 2. The class given is binding. On the procedure:
as §1

Another data set has as its target ADRB1 (Adrenergic beta) (Homo sapiens, UniProt P08588). In words: Receptor panel, Study 3 (agonist/antagonist). The class given is biochemical. The note with it: n = 2. Here is the method:
as §1

Another data set concerns the target ADRB2 (Adrenergic beta) (Homo sapiens, UniProt P07550). In words: Receptor panel, Study 3 (agonist/antagonist). The class given is biochemical. The conditions noted are these: n = 2. Here is the method: as §1
In a further data set the target is D2L (Dopamine 2L) (Homo sapiens, UniProt P14416). Briefly: Receptor panel, Study 3 (agonist/antagonist). The class given is biochemical. The note with it: n = 2. On the procedure:
as §1

For the next data set, the target named is DOP (Opioid delta) (Homo sapiens, UniProt P41143). Briefly: Receptor panel, Study 3 (agonist/antagonist). The class given is biochemical. The conditions noted are these: n = 2; comment 20%. Here is the method:
as §1

A further data set addresses H1 (Histamine H1) (Homo sapiens, UniProt P35367). In words: Receptor panel, Study 3 (agonist/antagonist). The data set is classed as biochemical. The note with it: n = 2. Here is the method:
as §1

In a further data set the target is T1, BLK (Homo sapiens, UniProt P51451).
T1 construct: purchased Eurofins Scientific
In words: ActivX KiNativ native kinase profiling, Ramos cell lysates. The class given is binding. The conditions noted are these: activation loop labelling. On the procedure:
as §1

Data set [1] is described as follows: Blood-to-plasma concentration ratio. The conditions noted are these: dog, fresh blood. The data set is classed as in vitro ADME.
Data set [2] is described as follows: Blood-to-plasma concentration ratio. The class given is in vitro ADME. The conditions noted are these: mouse, fresh blood.
The next data set concerns the target CYP3A4 (CYP3A) (Homo sapiens, UniProt P08684). In words: Time-dependent inhibition of CYP3A in human liver microsomes. The class given is in vitro ADME. The conditions noted are these: probe testosterone. On the procedure: To assess the potential of the compound of Formula (III) to be a time-dependent inhibitor of CYP3A, human liver microsomes were preincubated for 30 minutes at 37° C. with the compound of Formula (III) at concentrations up to 10 μM, and CYP3A activity was measured using testosterone as a probe substrate. […] The potential of the compound of Formula (III) to induce CYPs at the transcriptional level was assessed using Puracyp™ DPX2 (CYP3A4, PXR) and DRE (CYP1A2, AhR) luciferase-reporter cell lines; rifampicin and omeprazole were used as positive controls for CYP3A and CYP1A induction, respectively. The activation by the compound of Formula (III) was <20% of positive control values for PXR (6.6% and 14.1% at 1 and 10 μM change, respectively) or AhR (0.1% and 0.3% change, respectively). […] Potential involvement of various CYP isoforms in the metabolism of the compound of Formula (III) was investigated by measuring the parent compound remaining after 1-hour incubation with the compound of Formula (III) (1 μM) with recombinant CYPs (rCYPs) at 100 pmol P450/mL in the presence of 1 mM NADPH at 37° C. The only isozyme that produced notable the compound of Formula (III) turnover with <1% parent remaining after 1-hour incubation was CYP3A4 (FIG. 24). […]
A general note: Liver microsomes are vesicles of endoplasmic reticulum, rich in cytochrome P450 enzymes.

Sequence of CYP3A4 (CYP3A) (P08684 2-503): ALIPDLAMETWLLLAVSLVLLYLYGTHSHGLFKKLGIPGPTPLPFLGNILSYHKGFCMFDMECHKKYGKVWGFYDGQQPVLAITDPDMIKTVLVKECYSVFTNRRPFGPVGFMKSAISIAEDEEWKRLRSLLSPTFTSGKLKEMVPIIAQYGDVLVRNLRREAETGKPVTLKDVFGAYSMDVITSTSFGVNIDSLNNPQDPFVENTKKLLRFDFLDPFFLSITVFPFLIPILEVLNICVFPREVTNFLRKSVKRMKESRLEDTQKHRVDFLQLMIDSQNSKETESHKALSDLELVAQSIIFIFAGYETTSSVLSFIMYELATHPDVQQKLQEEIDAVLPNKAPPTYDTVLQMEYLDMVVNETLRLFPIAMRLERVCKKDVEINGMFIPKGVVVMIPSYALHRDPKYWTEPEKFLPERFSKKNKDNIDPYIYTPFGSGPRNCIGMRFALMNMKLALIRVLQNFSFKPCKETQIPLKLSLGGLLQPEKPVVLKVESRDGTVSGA
Sequence of H1 (Histamine H1) (P35367 whole entry): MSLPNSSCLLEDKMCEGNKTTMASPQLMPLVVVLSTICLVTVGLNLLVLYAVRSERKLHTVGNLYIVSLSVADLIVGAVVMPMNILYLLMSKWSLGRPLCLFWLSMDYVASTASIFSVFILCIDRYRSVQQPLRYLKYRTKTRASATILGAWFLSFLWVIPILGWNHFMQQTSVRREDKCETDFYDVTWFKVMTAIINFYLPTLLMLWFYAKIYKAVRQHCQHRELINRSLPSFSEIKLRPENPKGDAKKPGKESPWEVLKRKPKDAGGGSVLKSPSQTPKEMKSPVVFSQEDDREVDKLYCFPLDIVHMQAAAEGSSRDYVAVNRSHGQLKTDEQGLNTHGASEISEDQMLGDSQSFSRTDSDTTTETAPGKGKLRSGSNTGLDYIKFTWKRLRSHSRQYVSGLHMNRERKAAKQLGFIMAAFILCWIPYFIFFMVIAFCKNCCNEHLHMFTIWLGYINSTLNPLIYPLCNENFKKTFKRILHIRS
Sequence of D2L (Dopamine 2L) (P14416 whole entry): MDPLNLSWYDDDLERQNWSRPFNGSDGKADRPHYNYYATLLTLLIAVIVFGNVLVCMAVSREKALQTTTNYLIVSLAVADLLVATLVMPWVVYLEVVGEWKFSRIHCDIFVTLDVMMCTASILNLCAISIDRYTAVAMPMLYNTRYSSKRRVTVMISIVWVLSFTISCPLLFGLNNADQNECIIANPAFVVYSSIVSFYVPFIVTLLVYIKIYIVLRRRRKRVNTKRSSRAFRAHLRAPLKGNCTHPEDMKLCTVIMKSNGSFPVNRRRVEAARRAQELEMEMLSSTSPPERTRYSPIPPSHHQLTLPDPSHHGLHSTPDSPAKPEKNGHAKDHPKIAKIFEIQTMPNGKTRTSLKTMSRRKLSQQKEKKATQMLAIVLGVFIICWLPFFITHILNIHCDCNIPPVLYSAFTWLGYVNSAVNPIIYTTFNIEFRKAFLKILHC
Sequence of DOP (Opioid delta) (P41143 whole entry): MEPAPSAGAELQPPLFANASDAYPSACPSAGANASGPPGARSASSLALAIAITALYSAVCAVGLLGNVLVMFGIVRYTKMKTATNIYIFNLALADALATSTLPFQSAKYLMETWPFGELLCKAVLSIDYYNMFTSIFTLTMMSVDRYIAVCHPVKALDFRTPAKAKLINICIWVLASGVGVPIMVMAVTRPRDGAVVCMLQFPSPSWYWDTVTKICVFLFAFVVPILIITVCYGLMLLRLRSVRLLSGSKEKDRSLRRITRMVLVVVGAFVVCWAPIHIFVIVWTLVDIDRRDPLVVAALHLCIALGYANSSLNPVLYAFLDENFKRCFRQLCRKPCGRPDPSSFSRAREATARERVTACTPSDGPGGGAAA
Sequence of Ach (h) (P22303 32-614): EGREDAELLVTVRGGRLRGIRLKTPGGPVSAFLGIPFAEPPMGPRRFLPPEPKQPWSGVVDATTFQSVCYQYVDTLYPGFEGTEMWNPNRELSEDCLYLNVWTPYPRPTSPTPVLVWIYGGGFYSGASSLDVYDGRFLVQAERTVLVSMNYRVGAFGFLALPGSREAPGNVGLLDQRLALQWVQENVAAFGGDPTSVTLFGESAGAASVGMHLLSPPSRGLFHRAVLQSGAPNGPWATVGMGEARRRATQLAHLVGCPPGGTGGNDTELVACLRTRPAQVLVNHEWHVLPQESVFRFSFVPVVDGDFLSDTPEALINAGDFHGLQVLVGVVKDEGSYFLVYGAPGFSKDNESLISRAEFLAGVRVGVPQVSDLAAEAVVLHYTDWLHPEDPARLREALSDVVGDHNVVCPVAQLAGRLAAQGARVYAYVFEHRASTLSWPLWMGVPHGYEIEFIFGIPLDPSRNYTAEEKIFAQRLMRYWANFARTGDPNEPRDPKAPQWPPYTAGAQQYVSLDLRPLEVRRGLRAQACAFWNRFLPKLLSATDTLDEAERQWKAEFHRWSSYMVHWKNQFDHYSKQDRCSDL
Sequence of N neuronal α4β2 (h) (P43681 29-627 limits assumed): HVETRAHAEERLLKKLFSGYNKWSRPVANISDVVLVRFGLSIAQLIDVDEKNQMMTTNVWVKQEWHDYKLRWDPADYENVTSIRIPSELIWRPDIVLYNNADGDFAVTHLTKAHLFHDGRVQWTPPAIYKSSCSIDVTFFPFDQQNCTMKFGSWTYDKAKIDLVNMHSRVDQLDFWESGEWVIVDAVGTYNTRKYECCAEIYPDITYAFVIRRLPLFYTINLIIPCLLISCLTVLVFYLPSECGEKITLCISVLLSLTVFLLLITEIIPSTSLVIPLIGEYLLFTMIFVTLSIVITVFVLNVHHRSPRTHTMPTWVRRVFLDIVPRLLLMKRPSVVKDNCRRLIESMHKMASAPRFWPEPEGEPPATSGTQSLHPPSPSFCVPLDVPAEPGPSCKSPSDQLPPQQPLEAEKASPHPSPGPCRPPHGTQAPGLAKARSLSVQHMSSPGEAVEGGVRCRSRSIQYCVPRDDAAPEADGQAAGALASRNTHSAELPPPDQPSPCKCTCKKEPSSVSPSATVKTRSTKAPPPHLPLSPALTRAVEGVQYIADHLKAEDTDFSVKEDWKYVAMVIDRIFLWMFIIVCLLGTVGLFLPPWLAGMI
Sequence of N neuronal α4β2 (h) (P17787 26-502): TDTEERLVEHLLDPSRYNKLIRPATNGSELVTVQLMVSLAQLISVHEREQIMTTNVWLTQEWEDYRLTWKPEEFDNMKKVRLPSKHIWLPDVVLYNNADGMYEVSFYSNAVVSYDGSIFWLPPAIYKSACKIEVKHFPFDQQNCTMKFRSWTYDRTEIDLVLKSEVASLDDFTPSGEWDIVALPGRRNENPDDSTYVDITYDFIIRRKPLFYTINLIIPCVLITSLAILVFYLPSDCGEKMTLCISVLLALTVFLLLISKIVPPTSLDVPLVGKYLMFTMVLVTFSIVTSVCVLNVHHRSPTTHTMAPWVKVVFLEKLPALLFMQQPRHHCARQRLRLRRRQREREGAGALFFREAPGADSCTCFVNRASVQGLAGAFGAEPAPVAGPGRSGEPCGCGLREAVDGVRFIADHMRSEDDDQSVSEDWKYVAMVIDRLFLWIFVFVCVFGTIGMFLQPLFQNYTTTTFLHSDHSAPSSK

In the case of `C=CC(=O)N[C@H]1CCC[C@H]1NC(=O)c1sc2nccc3c2c1NC(=O)N3c1cnc(CC(C)C)cc1C` (atropisomer, axis not shown) [compound of Formula (III), N-((1R,2S)-2-Acrylamidocyclopentyl)-5-(S)-(6-isobutyl-4-methylpyridin-3-yl)-4-oxo-4,5-dihydro-3H-1-thia-3,5,8-triazaacenaphthylene-2-carboxamide], the inhibition (in general, how much of the control response was suppressed) at 10 µM at AR (h) is less than 10%; on Ach (h), 11%; on Beta2 (h), less than 10%; on CB1 (h), less than 10%; at CB2 (h), less than 10%; against GR (h), less than 10%. Also, the inhibition at 10 µM on MAO-A is 14%; at N neuronal α4β2 (h), less than 10%; against PDE3A (h), less than 10%; at PDE4D2 (h) it was less than 10%; against mGluR5 (h) it was less than 10%. The “% Inhibition at 10 μM” value in the data set on Ca channel and in the data set on NMDA was “— (no inhibition observed)” each time. Moreover, the IC50 (as a rule, the concentration needed to halve the response being measured) is greater than 12.5 µM at ADRB1 (Adrenergic beta); greater than 12.5 µM on ADRB2 (Adrenergic beta); greater than 12.5 µM at D2L (Dopamine 2L); greater than 10 µM at DOP (Opioid delta); greater than 10 µM at H1 (Histamine H1) (read-out: Agonist IC50); greater than 10 µM at H1 (Histamine H1) (read-out: Antagonist IC50). Besides, the IC50 against CYP3A4 (CYP3A) (with 30 min preincubation) was 9.81 µM; against CYP3A4 (CYP3A) (without preincubation), greater than 10 µM. This molecule returned an inhibition at 1 µM against BLK of 61.9%. Besides, the blood plasma ratio at 1 μM in data set [1] is 0.75; in data set [2], 0.84.
